Columns and labels:
[1] = system: loxapine-induced catalepsy; assay: loxapine-induced catalepsy in rats; type: in vivo; details: 0.3-3 mg/kg s.c.
Method: Kalkman H. O. et al., Br. J. Pharmacol. 124:1550-1556 (1998)] at doses of about 0.3 to about […] s.c.

[2] = system: amphetamine induced locomotion; assay: amphetamine induced locomotion in rats; type: in vivo
Method: The compound or the solvent are administered at t=−30 min.

| SMILES | inhibition of catalepsy [1] | reduction of locomotion ([2]; rats, 1, 3 and 10 mg/kg s.c.) | reduction of locomotion ([2]; rats, 0.1, 0.3 and 1 mg/kg s.c.) |
| --- | --- | --- | --- |
| COc1ccccc1[C@H]1CCN(Cc2ccc3c(c2)OCCO3)C1 [(R)-1-(2,3,-dihydro-benzo-[1,4]dioxin-6-ylmethyl)-3-(2-methoxyphenyl)pyrrolidine] | long lasting, dose-dependent inhibition of catalepsy | dose-dependently reduce locomotion |  |
| COc1ccccc1[C@H]1CCN(Cc2ccc(=O)n(C(C)C)c2)C1 [(R)-1-isopropyl-5-[3-(2-methoxyphenyl)pyrrolidin-1-ylmethyl]-1H-pyridin-2-one] | long lasting, dose-dependent inhibition of catalepsy |  | dose-dependently reduce locomotion |

Source: patent US7012085B2, “1,3 disubstituted pyrrolidines as α-2-adrenoceptor antagonists” (Novartis AG, priority 2000, dated 2006)
